Measurements taken from ChEMBL document CHEMBL1201862, “PubChem BioAssay data set” (2004).
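Step 1: Grow cells in 96-well plates. Step 2: Expose to compound for 48 hours at 5 concentrations. Step 3: Interpolate endpoints linearly; if unreached, use highest concentration. The concentration for 50% growth inhibition is given as GI50.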 Calls of active or inactive are those of the source. Rule as the data show it: active = GI50 up to about 1.1 µM and inactive = higher.

Legend:
Assay in all cases: NCI-60 cell line screen, 48 h
[1] = system: RXF 393
[2] = system: SK-MEL-5
[3] = system: NCI/ADR-RES
[4] = system: COLO 205
[5] = system: K562
[6] = system: RPMI-8226
[7] = system: 786-0
[8] = system: UACC-257
[9] = system: OVCAR-5
[10] = system: CAKI-1
[11] = system: HCT-116
[12] = system: SW-620
[13] = system: LOX IMVI
[14] = system: SN12C
[15] = system: Malme-3M
[16] = system: MDA-MB-435
[17] = system: HCT-15
[18] = system: SNB-75
[19] = system: SF-539

Row | Structure (SMILES) | GI50 [1] | GI50 [2] | GI50 [3] | GI50 [4] | GI50 [5] | GI50 [6] | GI50 [7] | GI50 [8] | GI50 [9] | GI50 [10] | GI50 [11] | GI50 [12] | GI50 [13] | GI50 [14] | GI50 [15] | GI50 [16] | GI50 [17] [µM] | GI50 [18] | GI50 [19]
1 | CCC1c2[nH]c3ccccc3c2C[C@H]2C(=O)NC(Cc3c[nH]c4ccccc34)C(=O)N12 (some centres not stated) | 17.4 µM (inactive) | 17.5 µM (inactive) | 27.9 µM (inactive) | 18.8 µM (inactive) | 27.6 µM (inactive) | 19.4 µM (inactive) | 23.4 µM (inactive) | 19.4 µM (inactive) | 25.8 µM (inactive) | 28.8 µM (inactive) | 18 µM (inactive) | 38.5 µM (inactive) | 22.1 µM (inactive) | 22.5 µM (inactive) | 18.4 µM (inactive) | 19.7 µM (inactive) | 28.5 | – | –
2 | Cn1c(C(C)(C)OC(=O)Oc2ccccc2)cnc1[N+](=O)[O-] | > 100 µM (inactive) | 53.3 µM (inactive) | > 100 µM (inactive) | 71.1 µM (inactive) | 59.2 µM (inactive) | 21 µM (inactive) | > 100 µM (inactive) | 36 µM (inactive) | > 100 µM (inactive) | > 100 µM (inactive) | 92.5 µM (inactive) | 72.8 µM (inactive) | – | 19.7 µM (inactive) | 32.3 µM (inactive) | > 100 µM (inactive) | > 100 | > 100 µM (inactive) | > 100 µM (inactive)
3 | COc1cc(-c2cc(OC)c(OC)c3ccc(Br)cc23)c2cc(Br)ccc2c1OC | 15.1 µM (inactive) | 32.3 µM (inactive) | 33.7 µM (inactive) | 39.5 µM (inactive) | 22.4 µM (inactive) | 21.4 µM (inactive) | 19.8 µM (inactive) | 46.1 µM (inactive) | 15.9 µM (inactive) | 47.4 µM (inactive) | 12.4 µM (inactive) | 80.5 µM (inactive) | 19.3 µM (inactive) | 26 µM (inactive) | 24.1 µM (inactive) | 23.7 µM (inactive) | 63.2 | – | 21.5 µM (inactive)
4 | CC(CO)C1C[C@H](O)[C@@]2(C)CC(=O)C=C(CO)[C@@H]2C1 (some centres not stated) | > 100 µM (inactive) | > 100 µM (inactive) | > 100 µM (inactive) | > 100 µM (inactive) | – | – | > 100 µM (inactive) | > 100 µM (inactive) | > 100 µM (inactive) | > 100 µM (inactive) | > 100 µM (inactive) | > 100 µM (inactive) | > 100 µM (inactive) | > 100 µM (inactive) | – | > 100 µM (inactive) | > 100 | > 100 µM (inactive) | > 100 µM (inactive)
5 | NCCCC(N)C(=O)O (configuration not stated) | > 100 µM (inactive) | > 100 µM (inactive) | > 100 µM (inactive) | > 100 µM (inactive) | > 100 µM (inactive) | > 100 µM (inactive) | > 100 µM (inactive) | > 100 µM (inactive) | > 100 µM (inactive) | > 100 µM (inactive) | > 100 µM (inactive) | > 100 µM (inactive) | > 100 µM (inactive) | > 100 µM (inactive) | > 100 µM (inactive) | > 100 µM (inactive) | > 100 | > 100 µM (inactive) | –
6 | COC(=O)C1CC(C=[N+](C)C)=C(SC)N1C(=O)OCc1ccccc1 (configuration not stated) | > 100 µM (inactive) | > 100 µM (inactive) | > 100 µM (inactive) | > 100 µM (inactive) | > 100 µM (inactive) | > 100 µM (inactive) | > 100 µM (inactive) | > 100 µM (inactive) | > 100 µM (inactive) | > 100 µM (inactive) | > 100 µM (inactive) | > 100 µM (inactive) | – | – | > 100 µM (inactive) | > 100 µM (inactive) | > 100 | > 100 µM (inactive) | –
7 | O=C(NN=C1NCCN1)c1ccco1 | > 100 µM (inactive) | > 100 µM (inactive) | > 100 µM (inactive) | > 100 µM (inactive) | > 100 µM (inactive) | > 100 µM (inactive) | > 100 µM (inactive) | > 100 µM (inactive) | > 100 µM (inactive) | – | > 100 µM (inactive) | > 100 µM (inactive) | > 100 µM (inactive) | > 100 µM (inactive) | > 100 µM (inactive) | > 100 µM (inactive) | > 100 | > 100 µM (inactive) | > 100 µM (inactive)
8 | CC(C(O)c1ccccc1)N(C)/N=N/c1nc2c([nH]1)c(=O)n(C)c(=O)n2C (configuration not stated) | 42.9 µM (inactive) | 66.8 µM (inactive) | > 100 µM (inactive) | 41.4 µM (inactive) | 91 µM (inactive) | 48.9 µM (inactive) | 74.1 µM (inactive) | > 100 µM (inactive) | > 100 µM (inactive) | 58.6 µM (inactive) | > 100 µM (inactive) | > 100 µM (inactive) | – | 52.6 µM (inactive) | > 100 µM (inactive) | 75.3 µM (inactive) | 90.4 | > 100 µM (inactive) | –
9 | CC(=O)OC(C#N)CC(C)(C)/[N+]([O-])=[N+](\[O-])C(C)(C)CC(C#N)OC(C)=O (configuration not stated) | 12.8 µM (inactive) | 16.1 µM (inactive) | 22.4 µM (inactive) | 15.7 µM (inactive) | 3.77 µM (inactive) | 15.8 µM (inactive) | 10.6 µM (inactive) | 16.9 µM (inactive) | 23 µM (inactive) | 15 µM (inactive) | 6.7 µM (inactive) | 5.47 µM (inactive) | 11.1 µM (inactive) | 12.9 µM (inactive) | 18.5 µM (inactive) | 16.1 µM (inactive) | 10.6 | 15.1 µM (inactive) | –
10 | CC(=O)OCC1OC(n2c(-c3ccccc3)c(C(C)=O)c(-c3cccc4ccccc34)c(C#N)c2=S)C(OC(C)=O)C(OC(C)=O)C1OC(C)=O (configuration not stated) | > 100 µM (inactive) | > 100 µM (inactive) | > 100 µM (inactive) | > 100 µM (inactive) | > 100 µM (inactive) | – | > 100 µM (inactive) | > 100 µM (inactive) | > 100 µM (inactive) | – | > 100 µM (inactive) | > 100 µM (inactive) | > 100 µM (inactive) | > 100 µM (inactive) | > 100 µM (inactive) | > 100 µM (inactive) | > 100 | – | > 100 µM (inactive)
11 | Cc1cc(N(CCC#N)CCC#N)ccc1C(/N=N\c1ccc([N+](=O)[O-])cc1)=N\NC(=O)c1cc(Cl)ccc1O | 28.6 µM (inactive) | 30.6 µM (inactive) | 28.7 µM (inactive) | 25 µM (inactive) | 35.2 µM (inactive) | > 100 µM (inactive) | 47.8 µM (inactive) | 34 µM (inactive) | > 100 µM (inactive) | 40.7 µM (inactive) | 25.5 µM (inactive) | – | – | 22.6 µM (inactive) | 28.1 µM (inactive) | 64.9 µM (inactive) | 29.6 | > 100 µM (inactive) | 40.4 µM (inactive)
12 | Cc1ccc(C2=CC(=O)OC(C[P+](c3ccccc3)(c3ccccc3)c3ccccc3)(c3ccccc3)O2)cc1 (configuration not stated) | 16.7 µM (inactive) | 15.4 µM (inactive) | 19 µM (inactive) | 14.3 µM (inactive) | 23.3 µM (inactive) | 17.5 µM (inactive) | 19.3 µM (inactive) | 16.9 µM (inactive) | 23.2 µM (inactive) | 15.4 µM (inactive) | 14.5 µM (inactive) | – | – | 27.2 µM (inactive) | 16.1 µM (inactive) | 16.2 µM (inactive) | 20 | 21.3 µM (inactive) | 18.1 µM (inactive)
13 | CN1CC=C(C#CC(C)(C)O)CC1 | > 37.5 µM (inactive) | > 37.5 µM (inactive) | > 37.5 µM (inactive) | > 37.5 µM (inactive) | > 37.5 µM (inactive) | > 37.5 µM (inactive) | > 37.5 µM (inactive) | > 37.5 µM (inactive) | > 37.5 µM (inactive) | > 37.5 µM (inactive) | > 37.5 µM (inactive) | > 37.5 µM (inactive) | > 37.5 µM (inactive) | > 37.5 µM (inactive) | 30.8 µM (inactive) | > 37.5 µM (inactive) | > 37.5 | > 37.5 µM (inactive) | –
14 | O=C1c2ccccc2C(=O)N1NC1=NCCN1 | > 100 µM (inactive) | > 100 µM (inactive) | > 100 µM (inactive) | > 100 µM (inactive) | > 100 µM (inactive) | > 100 µM (inactive) | > 100 µM (inactive) | > 100 µM (inactive) | > 100 µM (inactive) | > 100 µM (inactive) | > 100 µM (inactive) | > 100 µM (inactive) | > 100 µM (inactive) | > 100 µM (inactive) | > 100 µM (inactive) | > 100 µM (inactive) | > 100 | – | > 100 µM (inactive)
15 | COc1ccc(-n2c(C)nc3ccc(NC(=S)Nc4ccccc4)cc3c2=O)cc1 | 57.1 µM (inactive) | 37.4 µM (inactive) | > 100 µM (inactive) | 64.1 µM (inactive) | 51.6 µM (inactive) | 28.6 µM (inactive) | > 100 µM (inactive) | 51.8 µM (inactive) | > 100 µM (inactive) | > 100 µM (inactive) | 39.2 µM (inactive) | > 100 µM (inactive) | 43.7 µM (inactive) | > 100 µM (inactive) | > 100 µM (inactive) | 61.5 µM (inactive) | 76.2 | > 100 µM (inactive) | –
16 | Cc1c(O)c(OC2OC(CO)C(O)C(O)C2O)cc2c1CC[C@@H]1C2(C)C(=O)C[C@]2(C)[C@@H]([C@@](C)(O)C(=O)CCC(C)(C)O)[C@H](O)C[C@@]12C (some centres not stated) | > 100 µM (inactive) | > 100 µM (inactive) | > 100 µM (inactive) | > 100 µM (inactive) | > 100 µM (inactive) | – | > 100 µM (inactive) | > 100 µM (inactive) | > 100 µM (inactive) | > 100 µM (inactive) | > 100 µM (inactive) | > 100 µM (inactive) | – | > 100 µM (inactive) | > 100 µM (inactive) | > 100 µM (inactive) | > 100 | > 100 µM (inactive) | > 100 µM (inactive)
